Measured values taken from ChEMBL document CHEMBL3804787, “Electrophilic Oxidation and [1,2]-Rearrangement of the Biindole Core of Birinapant” (ACS Med Chem Lett, 2016).

Key:
[1] = Drug level using Birinapant assessed as compound formation by HPLC analysis; format: physicochemical
[2] = Drug degradation of the compound at 40 degC/75% RH measured after 1 year by HPLC analysis; format: physicochemical; settings: read-out: Drug degradation

SMILES | Drug metabolism [1] | degraded at 8766 h [2]
CC[C@H](NC(=O)[C@H](C)NC)C(=O)N1C[C@@H](O)C[C@H]1Cc1c([C@]2(C[C@@H]3C[C@H](O)CN3C(=O)[C@H](CC)NC(=O)[C@H](C)NC)Nc3cc(F)ccc3C2=O)[nH]c2cc(F)ccc12 | metabolite_detected | 
CC[C@H](NC(=O)[C@H](C)NC)C(=O)N1C[C@@H](O)C[C@H]1Cc1c(-c2[nH]c3cc(F)ccc3c2C[C@@H]2C[C@H](O)CN2C(=O)[C@H](CC)NC(=O)[C@H](C)NC)[nH]c2cc(F)ccc12 [BIRINAPANT] |  | > 0.1%
CC[C@H](NC(=O)[C@H](C)NC)C(=O)N1C[C@@H](O)C[C@H]1C[C@@]1(O)C(c2[nH]c3cc(F)ccc3c2C[C@H]2C[C@@H](O)CN2C(=O)[C@@H](CC)NC(=O)[C@@H](C)NC)=Nc2cc(F)ccc21 | metabolite_detected | 

Further lines, results first:

Drug metabolism [1] | degraded at 8766 h [2] | SMILES
metabolite_detected |  | CC[C@H](NC(=O)[C@H](C)NC)C(=O)N1C[C@@H](O)C[C@H]1C[C@]1(O)C(c2[nH]c3cc(F)ccc3c2C[C@H]2C[C@@H](O)CN2C(=O)[C@@H](CC)NC(=O)[C@@H](C)NC)=Nc2cc(F)ccc21
metabolite_detected |  | CC[C@H](NC(=O)[C@H](C)NC)C(=O)N1C[C@@H](O)C[C@H]1Cc1c([C@@]2(C[C@@H]3C[C@H](O)CN3C(=O)[C@H](CC)NC(=O)[C@H](C)NC)Nc3cc(F)ccc3C2=O)[nH]c2cc(F)ccc12
